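Five compound concentrations were applied to cells in 96-well plates for 48 hours; endpoints were derived by simple linear interpolation of the resulting dose-response curve. TGI marks complete inhibition of growth.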
Experiments:
Experiment in all cases: NCI-60 cell line screen, 48 h
OVCAR-5 ovarian = test system: OVCAR-5 ovarian
MDA-MB-231 breast = test system: MDA-MB-231 breast
HL-60(TB) leukemia = test system: HL-60(TB) leukemia
SF-539 CNS = test system: SF-539 CNS
NCI/ADR-RES ovarian = test system: NCI/ADR-RES ovarian
DU-145 prostate = test system: DU-145 prostate
HCC-2998 colon = test system: HCC-2998 colon
LOX IMVI melanoma = test system: LOX IMVI melanoma
OVCAR-8 ovarian = test system: OVCAR-8 ovarian
EKVX NSCLC = test system: EKVX NSCLC
BT-549 breast = test system: BT-549 breast
SF-268 CNS = test system: SF-268 CNS
T-47D breast = test system: T-47D breast
UO-31 renal = test system: UO-31 renal
SK-MEL-2 melanoma = test system: SK-MEL-2 melanoma
UACC-62 melanoma = test system: UACC-62 melanoma
UACC-257 melanoma = test system: UACC-257 melanoma
SK-OV-3 ovarian = test system: SK-OV-3 ovarian
A549 NSCLC = test system: A549 NSCLC
MALME-3M melanoma = test system: MALME-3M melanoma

SMILES	TGI (OVCAR-5 ovarian)	TGI (MDA-MB-231 breast)	TGI (HL-60(TB) leukemia)	TGI (SF-539 CNS)	TGI (NCI/ADR-RES ovarian)	TGI (DU-145 prostate)	TGI (HCC-2998 colon)	TGI (LOX IMVI melanoma)	TGI (OVCAR-8 ovarian)	TGI (EKVX NSCLC)	TGI (BT-549 breast)	TGI (SF-268 CNS)	TGI (T-47D breast)	TGI (UO-31 renal)	TGI (SK-MEL-2 melanoma)	TGI (UACC-62 melanoma)	TGI (UACC-257 melanoma)	TGI (SK-OV-3 ovarian)	TGI (A549 NSCLC)	TGI (MALME-3M melanoma)
CCOc1ccc2c(ccc(/C=C\c3cc(C)c4cccnc4c3O)[n+]2C)c1	16.7 µM	0.632 µM	1.05 µM	10.9 µM	> 100 µM	18.6 µM	> 100 µM	66.4 µM	38.8 µM	15.2 µM	38.1 µM	28.3 µM	6.2 µM	35.1 µM	3.24 µM	11.4 µM	6.9 µM	10.4 µM	26.4 µM	14 µM
CC(C)CC(=O)NC(NC(C)C)(C(F)(F)F)C(F)(F)F	–	> 100 µM	> 100 µM	> 100 µM	> 100 µM	> 100 µM	> 100 µM	> 100 µM	> 100 µM	> 100 µM	> 100 µM	> 100 µM	> 100 µM	> 100 µM	> 100 µM	> 100 µM	> 100 µM	–	> 100 µM	> 100 µM
O=C(CCc1ccc(O)c(O)c1)NCCc1cc(OCc2ccccc2)cc(OCc2ccccc2)c1	30.1 µM	48.8 µM	7.27 µM	30.1 µM	64 µM	32.3 µM	23.5 µM	34.5 µM	43.4 µM	29.3 µM	20.2 µM	42.3 µM	58.2 µM	12.6 µM	42 µM	47.4 µM	> 100 µM	31.3 µM	> 100 µM	–
COC(=O)/C=C1/N=C(N(C)/N=C/c2ccccc2)NC1=O	> 100 µM	> 100 µM	> 100 µM	> 100 µM	> 100 µM	> 100 µM	> 100 µM	> 100 µM	> 100 µM	> 100 µM	> 100 µM	> 100 µM	> 100 µM	> 100 µM	> 100 µM	> 100 µM	> 100 µM	> 100 µM	> 100 µM	> 100 µM
CCN(CC)Cc1nc(C2CCC([N+](=O)[O-])O2)no1 (configuration not stated)	84.2 µM	> 100 µM	40.5 µM	49 µM	76.3 µM	> 100 µM	42.4 µM	> 100 µM	> 100 µM	> 100 µM	56.7 µM	79.6 µM	98 µM	> 100 µM	72.6 µM	30.7 µM	40.8 µM	> 100 µM	> 100 µM	30.1 µM
CC1(C)CN=C(Nc2ccc(Cl)cc2)S1	> 100 µM	> 100 µM	> 100 µM	> 100 µM	> 100 µM	> 100 µM	> 100 µM	> 100 µM	> 100 µM	> 100 µM	> 100 µM	> 100 µM	> 100 µM	> 100 µM	> 100 µM	> 100 µM	> 100 µM	> 100 µM	> 100 µM	> 100 µM
CC(=O)NCCc1c[nH]c2ccc(Cl)cc12	> 100 µM	> 100 µM	> 100 µM	> 100 µM	> 100 µM	> 100 µM	> 100 µM	> 100 µM	> 100 µM	> 100 µM	> 100 µM	> 100 µM	> 100 µM	> 100 µM	> 100 µM	> 100 µM	> 100 µM	> 100 µM	> 100 µM	> 100 µM
CN(C)C=Nc1cccc2cnccc12	> 100 µM	> 100 µM	> 100 µM	> 100 µM	> 100 µM	> 100 µM	–	> 100 µM	> 100 µM	> 100 µM	> 100 µM	> 100 µM	> 100 µM	> 100 µM	> 100 µM	> 100 µM	> 100 µM	> 100 µM	> 100 µM	> 100 µM
COc1ccc(N2C(=O)/C(=C\c3cccc(Oc4ccccc4)c3)S(=O)(=O)C2c2ccccc2)cc1 (configuration not stated)	> 100 µM	> 100 µM	58.9 µM	–	46.2 µM	> 100 µM	> 100 µM	> 100 µM	–	88 µM	91.7 µM	–	> 100 µM	> 100 µM	> 100 µM	> 100 µM	> 100 µM	–	> 100 µM	> 100 µM
N#CC(C#N)=C(N)/C(C#N)=C/c1cc(O)c(O)c(Br)c1	> 100 µM	> 100 µM	> 92.3 µM	> 100 µM	> 100 µM	> 100 µM	> 100 µM	> 100 µM	> 100 µM	> 100 µM	> 100 µM	> 100 µM	> 100 µM	> 100 µM	> 100 µM	> 100 µM	> 100 µM	> 100 µM	> 100 µM	> 100 µM
O=C(Nc1ccccc1C(=O)O)/C(=C/c1ccccc1)NC(=O)c1ccccc1	> 100 µM	> 100 µM	> 100 µM	> 100 µM	> 100 µM	> 100 µM	> 100 µM	> 100 µM	> 100 µM	> 100 µM	> 100 µM	> 100 µM	> 100 µM	> 100 µM	> 100 µM	> 100 µM	> 100 µM	> 100 µM	> 100 µM	> 100 µM
Cc1ccc(S(=O)(=O)Oc2ccc(OS(=O)(=O)c3ccc(C)cc3)c3c2C(=O)c2ccccc2C3=O)cc1	> 100 µM	> 100 µM	> 100 µM	> 100 µM	> 100 µM	> 100 µM	> 100 µM	> 100 µM	> 100 µM	> 100 µM	> 100 µM	> 100 µM	> 100 µM	> 100 µM	> 100 µM	> 100 µM	> 100 µM	> 100 µM	> 100 µM	> 100 µM

Source: PubChem BioAssay (NCI)
